Test system: OE21 cells
Test: Apoptosis (AnnexinV staining, karyorrhexis, cleaved caspase 3)
Format: cell-based, human
Conditions: OE21, 21 μM, 24 h
Protocol: phototoxic contribution to bio-activity. Doxorubicin (Sigma) was prepared in doubly-distilled water (10 mg/mL, 17.4 mM).
[Ru(phen)2(dppz)]2+ (2 mM) was prepared in doubly-distilled water.
Sub-cellular fractionation. OE21 or OE33 cells were treated in 12 well plates, washed with cold PBS (2x2 mls) and nuclear and cytosol fractions obtained using the Nuclei EZ Lysis kit (Sigma). Briefly, cells were washed with acidified PBS (pH 2.5) to remove the membrane-bound fraction and 0.4 ml EZ lysis buffer was added. Cells were detached by scraping, collected into eppendorfs, vortexed briefly and left for 5 minutes on ice. Samples were centrifuged (500g, 5 mins) and the supernatant (cytosol fraction) aspirated. The pellet (nuclear fraction) was re-suspended in 200 µl RIPA buffer. […] Ruthenium content was determined by ICP-MS analysis as described in a recent […]
DNA fibre assay. […] CldU- and IdU-labelled tracts were visualised using a Leica DMRB microscope with a DFC360FX camera and tract length measured by ImageJ software. […]
Western blotting. […] Protein content was determined by BCA assay. […]
AnnexinV staining. […] This was incubated for 15 mins at room temperature, 400 µl binding buffer added and analysed by flow cytometry (FL1 and FL3 channels for FITC and PI respectively). […]

[Ru(phen)2(tpphz)]^2+ [Ru1]
apoptosis: low levels of apoptosis

Reference: PMC5870190, “A three-in-one-bullet for oesophageal cancer: replication fork collapse, spindle attachment failure and enhanced radiosensitivity generated by a ruthenium(II) metallo-intercalator” (Chemical Science, 2017)
